Laboratory results taken from patent US20240208912A1 (Mirati Therapeutics, Inc., priority 2021, published 2024).
Where two headings read alike, the source gives them in different places.

Assays:
[1] = test system: PRMT5-dependent Symmetric Di-methyl Arginine signal in HCT116 homozygous MTAP Knockout cells; assay: SYM11 In-Cell Western in HCT116 homozygous MTAP knockout cells; format: cell-based
Outline: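 HCT116 cells with CRISPR homozygous MTAP knockout, alongside parental cells, treated four days with PRMT5 inhibitor dose response at 37° C., 5% CO2 in McCoy's 5A with 10% FBS.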

[2] = test system: PRMT5-dependent Symmetric Di-methyl Arginine signal in HCT116 parental cells; assay: SYM11 In-Cell Western in HCT116 parental cells; format: cell-based; details: read-out: In-cell-Western (SYM11) IC50 (nM) HCT216 parental
Protocol: (§1) Control samples were analyzed in parallel.
Briefly, on Day 0, 2,000 HCT116 parental or HCT116 homozygous MTAP knockout cells were seeded in 96 well plates in McCoy's 5A supplemented with 10% fetal bovine serum and pen/strep and the cells were incubated overnight at 37° C. plus 5% CO2. The following day, cells were treated with DMSO vehicle control or a dose response of PRMT5 inhibitors, and incubated at 37° C. plus 5% CO^2 for four days.
After 4 days of treatment, the cells were fixed by adding 50 μl of 4% paraformaldehyde solution to each well and the cells were incubated for 20 min at room temperature. The paraformaldehyde solution was removed, 150 μl of ice-cold methanol was added and the plate was placed −20° C. for 10 minutes. The methanol was removed, 150 μl of Odyssey Blocking buffer+0.05% Tween20 was added and the plate was incubated at room temperature with shaking for one hour.
The primary SYM11 antibody solution was removed by aspiration and the wells were washed three consecutive times with phosphate buffered saline containing 0.1% Tween-20 (PBST).
The secondary antibody solution was removed by aspiration and the wells were washed three consecutive times with PBST.
The SYM11 signal and the DRAQ5 signal were quantified using a Li-Cor Odyssey machine reading at […], respectively. The SYM11/DRAQ5 ratio was used to calculate the inhibition of Symmetric Dimethyl Arginine as percent of DMSO control.

[3] = test system: HCT116 homozygous MTAP knockout cells; assay: Proliferation assay (CellTiter-Glo, 10 days) in HCT116 homozygous MTAP knockout cells; format: cell-based; details: CellTiter-Glo after 10 days of treatment, read-out: Proliferation IC50 (nM) HCT116 MTAP_KO
Outline: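 CellTiter-Glo viability read on day 11 gives a 10-day IC50. Dosing began one day after seeding, with a 1:10 split into fresh drug-containing medium on day 6. Cells are HCT116 lacking both MTAP alleles via CRISPR/Cas9, run alongside the parental line.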

PRMT5/MEP50 complex = biological target: T1, PRMT5/MEP50 complex (Homo sapiens, UniProt O14744); assay: PRMT5:MEP50 HotSpot Assay (full-length histone H2A substrate, plus and minus MTA); format: biochemical; details: IC50 + 2 μM MTA, in the presence of 2 μM MTA
T1 construct: purchased Reaction Biology Corporation
Outline: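 Tritiated product on full-length recombinant H2A was counted by scintillation after the stopped reaction was captured on filter paper. Substrate is histone H2A; conditions include plus and minus MTA.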

HCT116 parental cells = assay: Proliferation assay (CellTiter-Glo, 10 days) in HCT116 parental cells; format: cell-based; details: CellTiter-Glo after 10 days of treatment
Protocol: as §1
Briefly, on Day 0, 250 HCT116 parental or HCT116 homozygous MTAP knockout cell were seeded in 96 well plates in McCoy's 5A supplemented with […] fetal bovine serum and pen/strep and the cells were incubated overnight at 37° C. plus 5% CO2.
The following day, cells were treated with DMSO vehicle control or a dose response of PRMT5 inhibitors and incubated at 37 C plus 5% CO2 for five days. On Day 6, the cells were trypsinized and split 1:10 into new 96-well plates with fresh medium containing the same concentration of PRMT5 inhibitor and incubated for an additional 5 days at 37° C. plus 5% CO^2.
On Day 11, the viability of the cells was measured using a CTG assay kit (CellTiter-Glo; Promega cat.no G7573) in accordance with the manufacturer's instructions. The IC50 values for each compound after 10 days of treatment were calculated using GraphPad PRISM software.

[4] = Homo sapiens, HCT-116, 96 h, 4 days of treatment, SYM11/DRAQ5 ratio as percent of DMSO control, read-out: In-cell-Western (SYM11) IC50 (nM) HCT116 MTAP_KO
[5] = Homo sapiens, HCT-116, 96 h, HCT116 parental cells, 4 days of treatment, SYM11/DRAQ5 ratio as percent of DMSO control
[6] = HCT116 parental cells, 4 days of treatment, SYM11/DRAQ5 ratio as percent of DMSO control
[7] = 4 days of treatment, SYM11/DRAQ5 ratio as percent of DMSO control, read-out: In-cell-Western (SYM11) IC50 (nM) HCT116 MTAP_KO

T1 sequence (O14744 2-637 limits assumed): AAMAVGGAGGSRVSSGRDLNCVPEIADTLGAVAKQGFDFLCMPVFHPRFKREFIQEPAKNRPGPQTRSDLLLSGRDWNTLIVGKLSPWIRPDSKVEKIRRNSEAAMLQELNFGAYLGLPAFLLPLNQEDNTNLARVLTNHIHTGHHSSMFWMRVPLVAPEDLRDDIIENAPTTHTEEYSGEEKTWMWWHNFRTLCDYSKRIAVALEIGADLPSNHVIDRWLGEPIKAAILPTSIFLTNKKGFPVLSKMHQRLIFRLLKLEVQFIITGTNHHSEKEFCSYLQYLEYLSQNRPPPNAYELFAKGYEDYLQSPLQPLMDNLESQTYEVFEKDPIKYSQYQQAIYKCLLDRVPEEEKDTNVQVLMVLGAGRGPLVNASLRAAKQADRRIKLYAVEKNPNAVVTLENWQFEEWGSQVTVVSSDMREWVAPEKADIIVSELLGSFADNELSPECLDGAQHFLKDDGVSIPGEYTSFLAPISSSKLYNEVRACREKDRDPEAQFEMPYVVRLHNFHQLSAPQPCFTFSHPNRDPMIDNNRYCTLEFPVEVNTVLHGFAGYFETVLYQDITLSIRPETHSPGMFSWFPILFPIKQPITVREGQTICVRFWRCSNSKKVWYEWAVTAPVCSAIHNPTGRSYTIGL
T1 sequence (Q9BQA1 2-342 partner limits assumed): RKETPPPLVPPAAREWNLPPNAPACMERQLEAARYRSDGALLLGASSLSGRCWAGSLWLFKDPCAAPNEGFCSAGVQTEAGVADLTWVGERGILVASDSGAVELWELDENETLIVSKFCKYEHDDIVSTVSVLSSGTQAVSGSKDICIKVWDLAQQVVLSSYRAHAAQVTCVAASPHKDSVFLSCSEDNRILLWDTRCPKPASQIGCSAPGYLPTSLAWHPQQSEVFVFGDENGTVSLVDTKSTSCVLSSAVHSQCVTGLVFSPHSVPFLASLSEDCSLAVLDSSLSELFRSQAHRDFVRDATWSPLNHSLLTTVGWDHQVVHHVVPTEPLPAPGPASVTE

Row | IC50 [1, 4] | IC50 ([3]; Homo sapiens, HCT-116, 240 h) | IC50 (PRMT5/MEP50 complex) | IC50 [1, 7] | Structure (SMILES) | IC50 [2, 5] | also measured
1 |  |  | 38 nM |  | Cn1ncc(-c2ccc3c(=O)[nH]nc(CN)c3c2)c1-c1c(F)cc2ccccc2c1C#N (single isomer, unassigned) [Example 16-1] |  | IC50 (HCT116 parental cells): 757 nM; IC50 [2, 6]: 316 nM
2 |  |  | 107 nM | 4 nM | Cn1ncc(-c2ccc3c(=O)[nH]nc(CN)c3c2)c1-c1c(F)ccc(OC2CC2)c1C#N (single isomer, unassigned) [Example 16-22, (M)-2-[4-[4-(aminomethyl)-1-oxo-2H-phthalazin-6-yl]-2-methyl-pyrazol-3-yl]-6-(cyclopropoxy)-3-fluoro-benzonitrile] |  | IC50 (HCT116 parental cells): 3620 nM; IC50 [2, 6]: 1060 nM; IC50 [3]: 17 nM
3 |  | 224 nM | 111 nM | 73 nM | Cn1ncc(-c2ccc3c(=O)[nH]nc(CN)c3c2)c1-c1c(F)cc2ccccc2c1C#N (single isomer, unassigned) [Example 16-2] |  | IC50 (HCT116 parental cells): 5920 nM; IC50 [2, 6]: > 1000 nM
4 |  |  | 4.55 nM | 6 nM | Cc1c(F)c(-c2c(-c3cc(C)c4c(=O)[nH]nc(CN)c4c3)cnn2C)c(C#N)c2ccccc12 (single isomer, unassigned) [Example 16-42, (M)-2-[4-[4-(aminomethyl)-8-methyl-1-oxo-2H-phthalazin-6-yl]-2-methyl-pyrazol-3-yl]-3-fluoro-4-methyl-naphthalene-1-carbonitrile] |  | IC50 [3]: 7 nM
5 |  | 11 nM |  |  | N#Cc1c(OC2CC2)cc(Cl)c(F)c1-c1c(-c2ccc3c(=O)[nH]nc(CN)c3c2)cnn1C(F)F (atropisomer, axis not shown; (M)) [Example 16-106, (M)-2-(4-(4-(aminomethyl)-1-oxo-1,2-dihydrophthalazin-6-yl)-1-(difluoromethyl)-1H-pyrazol-5-yl)-4-chloro-6-cyclopropoxy-3-fluorobenzonitrile] |  | IC50 (HCT116 parental cells; Homo sapiens, HCT-116, 240 h): 1950 nM
6 |  |  | 113 nM | 9 nM | Cn1ncc(-c2cc(Cl)c3c(=O)[nH]nc(CN)c3c2)c1-c1c(F)ccc(OC2CC2)c1C#N (atropisomer, axis not shown; (M)) [Example 16-56, (M)-2-[4-[4-(aminomethyl)-8-chloro-1-oxo-2H-phthalazin-6-yl]-2-methyl-pyrazol-3-yl]-6-(cyclopropoxy)-3-fluoro-benzonitrile] |  | IC50 [3]: 22 nM
7 |  |  | 261 nM | 6 nM | Cc1cc(-c2cnn(C)c2-c2c(C#N)cc3ccccc3c2Cl)cc2c(CN)n[nH]c(=O)c12 (single isomer, unassigned) [Example 16-51, (P)-3-[4-[4-(aminomethyl)-8-methyl-1-oxo-2H-phthalazin-6-yl]-2-methyl-pyrazol-3-yl]-4-chloro-naphthalene-2-carbonitrile] |  | IC50 [3]: 706 nM
8 |  |  | 1060 nM |  | CCOc1cc(-c2cnn(C)c2-c2c(F)c(C)c3cc(Cl)cnc3c2C#N)cc2c(CN)n[nH]c(=O)c12 (single isomer, unassigned) [Example 16-100, (M)-7-(4-(4-(aminomethyl)-8-ethoxy-1-oxo-1,2-dihydrophthalazin-6-yl)-1-methyl-1H-pyrazol-5-yl)-3-chloro-6-fluoro-5-methylquinoline-8-carbonitrile] |  | IC50 (HCT116 parental cells; Homo sapiens, HCT-116, 240 h): > 10000 nM
9 |  |  | 29.1 nM | 13 nM | Cc1cc(-c2cnn(C)c2-c2c(C#N)cc3ccccc3c2Cl)cc2c(CN)n[nH]c(=O)c12 (single isomer, unassigned) [Example 16-52, (M)-3-[4-[4-(aminomethyl)-8-methyl-1-oxo-2H-phthalazin-6-yl]-2-methyl-pyrazol-3-yl]-4-chloro-naphthalene-2-carbonitrile] |  | IC50 [3]: 19 nM

Continued, molecule first:

Row | Structure (SMILES) | IC50 [1, 4] | IC50 ([3]; Homo sapiens, HCT-116, 240 h) | IC50 (PRMT5/MEP50 complex) | IC50 [1, 7] | IC50 [2, 5] | also measured
10 | Cc1cc(-c2cnn(C)c2-c2sc3ccccc3c2C#N)cc2c(CN)n[nH]c(=O)c12 [Example 10-23, 2-[4-[4-(aminomethyl)-8-methyl-1-oxo-2H-phthalazin-6-yl]-2-methyl-pyrazol-3-yl]benzo-thiophene-3-carbonitrile] | 15 nM | 30 nM | 126 nM |  | > 1000 nM | 
11 | Cn1ncc(-c2cc(C(F)F)c3c(=O)[nH]nc(CN)c3c2)c1-c1sc2ccccc2c1C#N [Example 10-21, 2-[4-[4-(aminomethyl)-8-(difluoromethyl)-1-oxo-2H-phthalazin-6-yl]-2-methyl-pyrazol-3-yl]benzothiophene-3-carbonitrile] | 35 nM | 35 nM | 4.09 nM |  | > 1000 nM | 
12 | Cn1ncc(-c2cc([C@H]3CCCO3)c3c(=O)[nH]nc(CN)c3c2)c1-c1sc2ccccc2c1C#N [Example 15-4, (R)-2-(4-(4-(aminomethyl)-1-oxo-8-(THF-2-yl)-1,2-dihydrophthalazin-6-yl)-1-methyl-1H-pyrazol-5-yl)benzo[b]thiophene-3-carbonitrile] | 551 nM | 1110 nM | 261 nM |  | 551 nM | 
13 | Cn1ncc(-c2cc([C@@H]3CCCO3)c3c(=O)[nH]nc(CN)c3c2)c1-c1sc2ccccc2c1C#N [Example 15-3, (S)-2-(4-(4-(aminomethyl)-1-oxo-8-(THF-2-yl)-1,2-dihydrophthalazin-6-yl)-1-methyl-1H-pyrazol-5-yl)benzo[b]thiophene-3-carbonitrile] | 6 nM | 22 nM | 16.3 nM |  | 330 nM | 
14 | COCc1nc2sc(-c3c(-c4ccc5c(=O)[nH]nc(CN)c5c4)cnn3C)c(C#N)c2cc1Cl [Example 4-272, 2-(4-(4-(aminomethyl)-1-oxo-1,2-dihydrophthalazin-6-yl)-1-methyl-1H-pyrazol-5-yl)-5-chloro-6-(methoxymethyl)thieno[2,3-b]pyridine-3-carbonitrile] | 55 nM | 245 nM | 260 nM |  | > 1000 nM | IC50 (HCT116 parental cells; Homo sapiens, HCT-116, 240 h): > 10000 nM
15 | CC(=O)Nc1cc(-c2cnn(C)c2-c2sc3ccccc3c2C#N)cc2c(CN)n[nH]c(=O)c12 [Example 15-8, N-(1-(aminomethyl)-7-(5-(3-cyano-benzo[b]thiophen-2-yl)-1-methyl-1H-pyrazol-4-yl)-4-oxo-3,4-dihydrophthal-azin-5-yl)acetamide] | 96 nM | 96 nM | 109 nM |  | 720 nM | IC50 (HCT116 parental cells; Homo sapiens, HCT-116, 240 h): 155 nM
16 | COCc1cc(-c2cnn(C)c2-c2sc3ccccc3c2C#N)cc2c(CN)n[nH]c(=O)c12 [Example 15-5, 2-[4-[4-(aminomethyl)-8-(methoxymethyl)-1-oxo-2H-phthalazin-6-yl]-2-methyl-pyrazol-3-yl]benzothiophene-3-carbonitrile] | 5 nM | 23 nM |  |  | 595 nM | 
17 | Cn1ncc(-c2ccc3c(=O)[nH]nc(CN)c3c2)c1-c1c(F)c(Cl)cc(OC2CC2)c1C#N [Example 4-230, 2-(4-(4-(aminomethyl)-1-oxo-1,2-dihydrophthalazin-6-yl)-1-methyl-1H-pyrazol-5-yl)-4-chloro-6-cyclopropoxy-3-fluorobenzonitrile] |  |  |  |  |  | IC50 ([1]; read-out: In-cell-Western (SYM11) IC50 (nM) HCT116 MTAP_KO, 4 days of treatment, SYM11/DRAQ5 ratio as percent of DMSO control): 6 nM; IC50 ([2]; Homo sapiens, HCT-116, 96 h): > 1000 nM
